Results: ChEMBL document CHEMBL5055656, “Synthesis of novel indole-thiazolidinone hybrid structures as promising scaffold with anticancer potential” (Bioorg Med Chem, 2021)
Active and inactive are the calls of the source. The rule behind the calls is not given here.

Tests used:
[1] = Selectivity index, ratio of GI50 for human HaCaT cells to GI50 for human A549 cells; format: toxicity; conditions: HaCaT cells versus A549 cells, read-out: RatioGI50
HCT-116 [2] = assay: Induction of apoptosis in human HCT-116 cells assessed as decrease in Cdk2 expression at 45 uM after 24 hrs by Western blot analysis; format: functional, cell-based
HeLa = assay: Cytotoxicity against human HeLa cells assessed as cell growth inhibition measured after 72 hrs by MTT assay; format: functional
[3] = (§1) Cytotoxicity against mouse BALB/3T3 cells assessed as cell growth inhibition measured after 24 hrs by coomassie brilliant blue staining based total cellular protein assay; conditions: BALB/3T3 cells
BALB/3T3 [4] = assay: as §1; conditions: balb/3t3, 24 h
[5] = (§2) Cytotoxicity against mouse BALB/3T3 cells assessed as cell growth inhibition measured after 48 hrs by neutral red uptake assay; format: cell-based; conditions: BALB/3T3 cells
BALB/3T3 [6] = assay: as §2; format: cell-based; conditions: balb/3t3, 48 h
HepG2 [7] = assay: Induction of apoptosis in human HepG2 cells assessed as increase in Bax expression at 45 uM after 24 hrs by Western blot analysis; format: functional, cell-based
HepG2 [8] = assay: Cytotoxicity against human HepG2 cells assessed as cell growth inhibition measured after 48 hrs by LDH assay; format: functional
HepG2 [9] = assay: Cytotoxicity against human HepG2 cells assessed as cell growth inhibition measured after 48 hrs by MTT assay; format: functional
[10] = Selectivity index, ratio of GI50 for mouse BALA/3T3 cells to GI50 for human HeLa cells; format: toxicity; conditions: BALA/3T3 cells versus HeLa cells, read-out: RatioGI50
HepG2 [11] = assay: Cytotoxicity against human HepG2 cells assessed as cell growth inhibition measured after 24 hrs by MTT assay; format: functional
[12] = Selectivity index, ratio of GI50 for mouse BALA/3T3 cells to GI50 for human HepG2 cells measured after 24 hrs by coomassie brilliant blue staining based total cellular protein assay; format: toxicity; conditions: BALA/3T3 cells versus HepG2 cells, read-out: Selectivity Index
[13] = Selectivity index, ratio of GI50 for mouse BALA/3T3 cells to GI50 for human HepG2 cells measured after 72 hrs by coomassie brilliant blue staining based total cellular protein assay; format: toxicity; conditions: BALA/3T3 cells versus HepG2 cells, read-out: Selectivity Index
MCF7 [14] = assay: Induction of apoptosis in human MCF7 cells assessed as decrease in Cdk2 expression at 45 uM after 24 hrs by Western blot analysis; format: functional, cell-based
[15] = Selectivity index, ratio of GI50 for mouse BALA/3T3 cells to GI50 for human HepG2 cells; format: toxicity; conditions: BALA/3T3 cells versus HepG2 cells, read-out: RatioGI50
A549 = assay: Cytotoxicity against human A549 cells assessed as cell growth inhibition measured after 72 hrs by MTT assay; format: functional
HepG2 [16] = assay: Cytotoxicity against human HepG2 cells assessed as cell growth inhibition measured after 48 hrs by neutral red uptake assay; format: functional
Salmon testes DNA = assay: Displacement of methyl green from salmon sperm DNA at 1 uM measured after 2 hrs by fluorescence plate reader method relative to control; format: cell-based; conditions: Salmo salar, Spermatozoa
MCF7 [17] = assay: Induction of apoptosis in human MCF7 cells assessed as activation of cleaved PARP1 expression at 0.7 uM incubated for 24 hrs by Western blot analysis; format: functional, cell-based
[18] = Selectivity index, ratio of GI50 for mouse BALA/3T3 cells to GI50 for human MCF7 cells; format: toxicity; conditions: BALA/3T3 cells versus MCF7 cells, read-out: RatioGI50
HepG2 [19] = assay: Cytotoxicity against human HepG2 cells assessed as cell growth inhibition measured after 24 hrs by neutral red uptake assay; format: functional
[20] = Selectivity index, ratio of GI50 for human HaCaT cells to GI50 for human HepG2 cells; format: toxicity; conditions: HaCaT cells versus HepG2 cells, read-out: RatioGI50
[21] = Selectivity index, ratio of GI50 for mouse BALA/3T3 cells to GI50 for human HepG2 cells measured after 48 hrs by neutral red uptake assay; format: toxicity; conditions: BALA/3T3 cells versus HepG2 cells, read-out: Selectivity Index
HCT-116 [22] = assay: Induction of DNA damage in human HCT-116 cells assessed as increase in tail length incubated at 0.7 uM measured after 24 hrs by alkaline Comet assay relative to control; format: functional
HepG2 [23] = assay: Cytotoxicity against human HepG2 cells assessed as cell growth inhibition measured after 72 hrs by LDH assay; format: functional
[24] = Selectivity index, ratio of GI50 for human HaCaT mouse BALA/3T3 cells to GI50 for human A549 cells; format: toxicity; conditions: read-out: RatioGI50
HepG2 [25] = assay: Cytotoxicity against human HepG2 cells assessed as cell growth inhibition measured after 72 hrs by neutral red uptake assay; format: functional
[26] = Selectivity index, ratio of GI50 for mouse BALA/3T3 cells to GI50 for human HepG2 cells measured after 48 hrs by coomassie brilliant blue staining based total cellular protein assay; format: toxicity; conditions: BALA/3T3 cells versus HepG2 cells, read-out: Selectivity Index
HepG2 [27] = assay: Cytotoxicity against human HepG2 cells assessed as cell growth inhibition measured after 72 hrs by MTT assay; format: functional
[28] = Selectivity index, ratio of GI50 for mouse BALA/3T3 cells to GI50 for human HepG2 cells measured after 48 hrs by LDH assay; format: toxicity; conditions: BALA/3T3 cells versus HepG2 cells, read-out: Selectivity Index
[29] = Selectivity index, ratio of GI50 for human HaCaT cells to GI50 for human HCT-116 cells; format: toxicity; conditions: HaCaT cells versus HCT-116 cells, read-out: RatioGI50
[30] = Selectivity index, ratio of GI50 for human HaCaT cells to GI50 for human THP-1 cells
MCF7 [31] = assay: Cytotoxicity against human MCF7 cells assessed as cell growth inhibition measured after 72 hrs by MTT assay; format: functional
[32] = (§3) Cytotoxicity against mouse BALB/3T3 cells assessed as cell growth inhibition measured after 72 hrs by LDH assay; format: cell-based; conditions: BALB/3T3 cells
BALB/3T3 [33] = assay: as §3; format: cell-based; conditions: balb/3t3, 72 h
HepG2 [34] = assay: Induction of DNA damage in human HepG2 cells assessed as increase in tail length incubated at 0.7 uM measured after 24 hrs by alkaline Comet assay; format: functional
BALB/3T3 [35] = assay: Induction of DNA damage in mouse BALB/3T3 cells assessed as increase in tail length incubated at 55 uM measured after 24 hrs by alkaline Comet assay; format: cell-based; conditions: balb/3t3, 24 h
MCF7 [36] = assay: Induction of DNA damage in human MCF7 cells assessed as increase in tail length incubated at 0.7 uM measured after 24 hrs by alkaline Comet assay; format: functional, cell-based
THP-1 = assay: Cytotoxicity against human THP-1 cells assessed as cell growth inhibition measured after 72 hrs by MTT assay; format: functional
HCT-116 [37] = assay: Induction of cell cycle arrest in human HCT-116 cells assessed as decrease in phospho-Rb expression at 45 uM measured after 24 hrs by Western blot analysis; format: functional, cell-based

## COC(=O)c1[nH]c2ccc(F)cc2c1/C=C1\SC(=S)NC1=O
[1]
  selectivity ratio: 7.17
HCT-116 [2]
  Activity: Active
HeLa
  GI50: 49.3 µM
[3]
  GI50 at 24 h: > 100 µM
BALB/3T3 [4]
  GI20: 6.1 µM
  GI80: > 100 µM
[5]
  GI50 at 48 h: > 100 µM
BALB/3T3 [6]
  GI20: 2.4 µM
  GI80: > 100 µM
HepG2 [7]
  Activity: Active
HepG2 [8]
  GI20: <0.01 µM
  GI80: 16.2 µM
HepG2 [8]; Homo sapiens, HepG2
  GI50: 60 nM
HepG2 [9]
  GI20: 0.3 µM
  GI80: 79.4 µM
HepG2 [9]; Homo sapiens, HepG2
  GI50: 16.3 µM
[10]
  selectivity ratio: 1.41
HepG2 [11]
  GI20: 3 µM
  GI80: 95.6 µM
HepG2 [11]; Homo sapiens, HepG2
  GI50: 44.7 µM
[12]
  selectivity ratio at 24 h: 1
[13]
  selectivity ratio at 72 h: 3
MCF7 [14]
  Activity: Active
[15]
  selectivity ratio: 5.75
A549
  GI50: 9.7 µM
HepG2 [16]
  GI20: 0.06 µM
  GI80: 73.5 µM
HepG2 [16]; Homo sapiens, HepG2
  GI50: 24.5 µM
Salmon testes DNA
  Activity: 1.7%
MCF7 [17]
  Activity: Active
[18]
  selectivity ratio: 99.4
HepG2 [19]
  GI20: 2.4 µM
  GI80: 80.7 µM
HepG2 [19]; Homo sapiens, HepG2
  GI50: 40.1 µM
[20]
  selectivity ratio: 5.75
[21]
  selectivity ratio at 48 h: 4.1
HCT-116 [22]
  Activity: 16.1%
HepG2 [23]
  GI20: <0.01 µM
  GI80: 3.6 µM
HepG2 [23]; Homo sapiens, HepG2
  GI50: 40 nM
[24]
  selectivity ratio: 7.17
HepG2 [25]
  GI20: <0.01 µM
  GI80: 59.6 µM
HepG2 [25]; Homo sapiens, HepG2
  GI50: 7.5 µM
[26]
  selectivity ratio at 48 h: 2
HepG2 [27]
  GI50: 12.1 µM
[28]
  selectivity ratio at 48 h: 1500
[29]
  selectivity ratio: 86.9
[30]
  RatioGI50: 1.11
MCF7 [31]
  GI50: 700 nM
[32]
  GI50 at 72 h: 62.8 µM
BALB/3T3 [33]
  GI20: 2.9 µM
  GI80: > 100 µM
HepG2 [34]
  Activity: 26.2%
BALB/3T3 [35]
  Activity: 8.4%
MCF7 [36]
  Activity: Active
THP-1
  GI50: 62.4 µM
HCT-116 [37]
  Activity: Active
